Laboratory results taken from US8697742B2, “BCRP/ABCG2 inhibitor” (Kabushiki Kaisha Yakult Honsha, priority 2005, dated 2014).
Values after ≈ are worked out from the molar mass of the structure shown. Structures can show the parent of a compound that is named as a salt.

Tested on: A549/SN-38-4 cells
Experiment: Effect of overcoming SN-38 resistance of BCRP-expressing A549/SN-38-4 cells
Assay type: cell-based, human
Settings: concentration for 50% reduction of relative SN-38 resistance value (IC50 A549/SN-38-4 / IC50 A549), 48 hours culture with SN-38; for EC50: Homo sapiens, A549, 48 h, read-out: Effect of overcoming resistance EC50
Description: The human lung cancer A549 cells or the A549/SN-38-4 cells were suspended in a Ham's F-12 medium containing 10% FBS, 100 U/mL of penicillin, and 100 μg/mL of streptomycin (10% FBS/Ham's F-12), and the resultant suspension was inoculated into a 96-well microplate (2×10^3 cells/50 μL/well), followed by culturing at 5% CO2 and 37° C. overnight. […] After completion of culturing, the number of viable cells was counted by use of a viable cell counting reagent [TetraColor ONE (trademark), product of Seikagaku Corporation] according to the attached instruction manual. […] The greater the relative resistance value, the higher the level of acquired resistance.

Row | SMILES | EC50 | other results
1 | COc1ccc(/C(C#N)=C/c2ccc(N(C)CCO)s2)cc1OC [Compound 7, (Z)-2-(3,4-dimethoxy-phenyl)-3-{5-[(2-hydroxy-ethyl)-methyl-amino]-thiophen-2-yl}-acrylonitrile] | 0.039 µg/mL (≈ 0.113 µM) | 
2 | COc1ccc(/C(C#N)=C/c2ccc(N3CCN(C)CC3)s2)cc1OC [Compound 8, (Z)-2-(3,4-dimethoxy-phenyl)-3-[5-(4-methyl-piperazin-1-yl)-thiophen-2-yl]-acrylonitrile] | 0.045 µg/mL (≈ 0.122 µM) | 
3 | COc1ccc(/C(C#N)=C/c2ccc(N3CCN(CCO)CC3)s2)cc1OC [Compound 9, (Z)-2-(3,4-dimethoxy-phenyl)-3-{5-[4-(2-hydroxy-ethyl)-piperazin-1-yl]-thiophen-2-yl}-acrylonitrile] | 0.046 µg/mL (≈ 0.115 µM) | 
4 | COc1ccc(/C(C#N)=C/c2ccc(N(C)CCN(C)C)s2)cc1OC [Compound 10, (Z)-2-(3,4-dimethoxy-phenyl)-3-{5-[(2-dimethylamino-ethyl)-methyl-amino]-thiophen-2-yl}-acrylonitrile] | 0.12 µg/mL (≈ 0.323 µM) | 
5 | COc1ccc(/C(C#N)=C/c2ccc(N3CCCCC3)s2)cc1OC [Compound 11, (Z)-2-(3,4-dimethoxy-phenyl)-3-(5-piperidin-1-yl-thiophen-2-yl)-acrylonitrile hydrochloride] |  | Effect of overcoming resistance EC50 (hydrochloride): 0.049 µg/mL
6 | COc1ccc(/C(C#N)=C/c2ccc(N(C)CCN(C)C)s2)cc1OC [Compound 15, (Z)-2-(3,4-dimethoxy-phenyl)-3-{5-[(2-dimethylamino-ethyl)-methyl-amino]-thiophen-2-yl}-acrylonitrile hydrochloride] |  | Effect of overcoming resistance EC50 (hydrochloride): 0.2 µg/mL
7 | COc1ccc(/C(C#N)=C/c2ccc(-c3cccc(N)c3)o2)cc1OC [Compound 22, (Z)-3-[5-(3-amino-phenyl)-furan-2-yl]-2-(3,4-dimethoxy-phenyl)-acrylonitrile] |  | Effect of overcoming resistance EC50: 0.013 µg/mL
8 | COc1ccc(/C(C#N)=C/c2ccc(N3CCCCC3)o2)cc1OC [Compound 24, (Z)-2-(3,4-dimethoxy-phenyl)-3-(5-piperidin-1-yl-furan-2-yl)-acrylonitrile] | 0.034 µg/mL (≈ 0.1 µM) | 
9 | COc1ccc(/C(C#N)=C/c2ccc(N3CCN(C)CC3)o2)cc1OC [Compound 29, (Z)-2-(3,4-dimethoxy-phenyl)-3-[5-(4-methyl-piperazin-1-yl)-furan-2-yl]-acrylonitrile hydrochloride] |  | Effect of overcoming resistance EC50 (hydrochloride): 0.42 µg/mL
10 | COc1ccc(/C(C#N)=C/c2cccnc2)cc1OC [Compound 36, (Z)-2-(3,4-dimethoxy-phenyl)-3-pyridin-3-yl-acrylonitrile hydrochloride] |  | Effect of overcoming resistance EC50 (hydrochloride): 0.12 µg/mL
11 | COc1ccc(/C=C(\C#N)c2ccc(OC)c(OC)c2)cn1 [Compound 37, (Z)-2-(3,4-dimethoxy-phenyl)-3-(6-methoxy-pyridin-3-yl)-acrylonitrile hydrochloride] |  | Effect of overcoming resistance EC50 (hydrochloride): 0.12 µg/mL
12 | COc1ccc(/C=C(\C#N)c2ccccn2)cc1OC [Compound 47, (Z)-3-(3,4-dimethoxy-phenyl)-2-pyridin-2-yl-acrylonitrile hydrochloride] |  | Effect of overcoming resistance EC50 (hydrochloride): 0.03 µg/mL
13 | COc1ccc(/C(C#N)=C/c2ccc(N3CCN(CCO)CC3)o2)cc1OC [Compound 50, (Z)-2-(3,4-dimethoxy-phenyl)-3-{5-[4-(2-hydroxy-ethyl)-piperazin-1-yl]-furan-2-yl}-acrylonitrile hydrochloride] |  | Effect of overcoming resistance EC50 (hydrochloride): 0.11 µg/mL
14 | COc1ccc(/C(C#N)=C/c2ccc(N3CCC(OC(=O)CCC(=O)O)CC3)o2)cc1OC [Compound 51, mono-(1-{5-[(Z)-2-cyano-2-(3,4-dimethoxy-phenyl)-vinyl]-furan-2-yl}-piperidin-4-yl)succinate] |  | Effect of overcoming resistance EC50: 0.51 µg/mL
15 | COc1ccc(/C(C#N)=C/c2ccc(N3CCN(CCO)CC3)s2)cc1OC.CS(=O)(=O)O [Compound 59, (Z)-2-(3,4-dimethoxy-phenyl)-3-{5-[4-(2-hydroxy-ethyl)-piperazin-1-yl]-thiophen-2-yl}-acrylonitrile methanesulfonate] | 0.061 µg/mL | 
16 | CCN(CC)CCCNC(=O)CCC(=O)OC1CCN(c2ccc(/C=C(\C#N)c3ccc(OC)c(OC)c3)s2)CC1 [Compound 61, 1-[5-[(Z)-2-cyano-2-(3,4-dimethoxy-phenyl)-vinyl]-thiophen-2-yl]-piperidin-4-yl N-(3-diethylamino-propyl)-succinamate hydrochloride] | 0.044 µg/mL | 
17 | COc1ccc(/C(C#N)=C/c2ccc(N3CCC(OC(=O)CN(C)C)CC3)s2)cc1OC.Cc1ccc(S(=O)(=O)O)cc1 [Compound 62, 1-[5-[(Z)-2-cyano-2-(3,4-dimethoxy-phenyl)-vinyl]-thiophen-2-yl]-piperidin-4-yl dimethylamino-acetate p-toluenesulfonate] | 0.062 µg/mL | 
18 | COc1ccc(/C(C#N)=C/c2ccc(N3CCC(OC(=O)CCC(=O)N4CCC(N5CCCCC5)CC4)CC3)s2)cc1OC.Cl [Compound 64, 1-[5-[(Z)-2-cyano-2-(3,4-dimethoxy-phenyl)-vinyl]-thiophen-2-yl]-piperidin-4-yl 4-[1,4′]bipiperidinyl-1′-yl-4-oxo-butylate hydrochloride] |  | Effect of overcoming resistance EC50: 0.053 µg/mL
19 | COc1ccc(/C(C#N)=C/c2cc3ccccc3o2)cc1OC [Compound 69, (Z)-3-benzofuran-2-yl-(3,4-dimethoxy-phenyl)-acrylonitrile] |  | Effect of overcoming resistance EC50: 0.043 µg/mL
20 | COc1ccc(/C=C(\C#N)c2coc3ccccc23)cc1OC [Compound 72, (Z)-2-benzofuran-3-yl-3-(3,4-dimethoxy-phenyl)-acrylonitrile] |  | Effect of overcoming resistance EC50: 0.011 µg/mL
21 | COc1ccc(/C(C#N)=C/c2ccc3c(c2)CCO3)cc1OC [Compound 75, (Z)-3-(2,3-dihydro-benzofuran-5-yl)-2-(3,4-dimethoxy-phenyl)-acrylonitrile] | 0.017 µg/mL (≈ 0.0553 µM) | 
22 | COc1ccc(/C(C#N)=C/c2cc(-c3ccc(F)cc3)on2)cc1OC [Compound 76, (Z)-2-(3,4-dimethoxy-phenyl)-3-[5-(4-fluoro-phenyl)-isoxazol-3-yl]-acrylonitrile] | 0.002 µg/mL (≈ 0.00571 µM) | 
23 | COc1ccc(-c2cc(/C=C(\C#N)c3ccc(OC)c(OC)c3)no2)cc1 [Compound 77, (Z)-2-(3,4-dimethoxy-phenyl)-3-[5-(4-methoxy-phenyl)-isoxazol-3-yl]-acrylonitrile] | 0.11 µg/mL (≈ 0.304 µM) | 
24 | COc1ccc2nc(Cl)c(/C=C(\C#N)c3ccccn3)cc2c1 [Compound 79, (Z)-3-(2-chloro-6-methoxy-quinolin-3-yl)-2-pyridin-2-yl-acrylonitrile] | 0.006 µg/mL (≈ 0.0186 µM) | 
25 | COc1ccc2nc(Cl)c(/C=C(\C#N)c3cccnc3)cc2c1 [Compound 80, (Z)-3-(2-chloro-6-methoxy-quinolin-3-yl)-2-pyridin-3-yl-acrylonitrile] | 0.019 µg/mL (≈ 0.059 µM) | 
26 | COc1ccc2nc(Cl)c(/C=C(\C#N)c3ccsc3)cc2c1 [Compound 82, (Z)-3-(2-chloro-6-methoxy-quinolin-3-yl)-2-thiophen-3-yl-acrylonitrile] | 0.078 µg/mL (≈ 0.239 µM) | 
27 | COc1ccc2nc(Cl)c(/C=C(\C#N)n3nnc4ccccc43)cc2c1 [Compound 83, (E)-2-benzotriazol-1-yl-3-(2-chloro-6-methoxy-quinolin-3-yl)-acrylonitrile] | 0.19 µg/mL (≈ 0.525 µM) | 

Second part, led by results:

Row | EC50 | SMILES | other results
28 | 0.13 µg/mL (≈ 0.371 µM) | COc1ccc(/C(C#N)=C/c2ccc(Br)s2)cc1OC [Compound 2, (Z)-3-(5-bromo-thiophen-2-yl)-2-(3,4-dimethoxy-phenyl)-acrylonitrile] | 
29 | 0.19 µg/mL (≈ 0.641 µM) | COc1ccc(/C=C(\C#N)c2ccc(OC)c(OC)c2)cn1 [Compound 35, (Z)-2-(3,4-dimethoxy-phenyl)-3-(6-methoxy-pyridin-3-yl)-acrylonitrile] | 
30 | 0.036 µg/mL (≈ 0.108 µM) | COc1ccc(/C(C#N)=C/c2ccc(Br)o2)cc1OC [Compound 54, (Z)-3-(5-bromo-furan-2-yl)-2-(3,4-dimethoxy-phenyl)-acrylonitrile] | 
31 | 0.011 µg/mL (≈ 0.0348 µM) | COc1ccc(/C(C#N)=C/c2ccnc3ccccc23)cc1OC [Compound 65, (Z)-2-(3,4-dimethoxy-phenyl)-3-quinolin-4-yl-acrylonitrile] | 
32 | 0.037 µg/mL (≈ 0.115 µM) | COc1ccc(/C(C#N)=C/c2csc3ccccc23)cc1OC [Compound 66, (Z)-3-benzo[b]thiophen-3-yl-2-(3,4-dimethoxy-phenyl)-acrylonitrile] | 
33 | 0.1 µg/mL (≈ 0.313 µM) | COc1ccc(/C(C#N)=C/c2nc3ccccc3n2C)cc1OC [Compound 67, (Z)-2-(3,4-dimethoxy-phenyl)-3-(1-methyl-1H-benzimidazol-2-yl)-acrylonitrile] | 
34 | 0.011 µg/mL (≈ 0.0346 µM) | COc1ccc(/C(C#N)=C/c2cn(C)c3ccccc23)cc1OC [Compound 68, (Z)-2-(3,4-dimethoxy-phenyl)-3-(1-methyl-1H-indol-3-yl)-acrylonitrile] | 
35 | 0.011 µg/mL (≈ 0.0314 µM) | COc1ccc(/C(C#N)=C/c2cc3ccccc3nc2Cl)cc1OC [Compound 70, (Z)-3-(2-chloro-quinolin-3-yl)-2-(3,4-dimethoxy-phenyl)-acrylonitrile] | 
36 | 0.011 µg/mL (≈ 0.0289 µM) | COc1ccc2nc(Cl)c(/C=C(\C#N)c3ccc(OC)c(OC)c3)cc2c1 [Compound 73, (Z)-3-(2-chloro-6-methoxy-quinolin-3-yl)-2-(3,4-dimethoxy-phenyl)-acrylonitrile] | 
37 | 0.021 µg/mL (≈ 0.0651 µM) | COc1ccc(/C=C(\C#N)c2nc3ccccc3s2)cc1OC [Compound 74, (E)-2-benzothiazol-2-yl-3-(3,4-dimethoxy-phenyl)-acrylonitrile] | 
38 | 0.077 µg/mL (≈ 0.243 µM) | COc1ccc(/C(C#N)=C/c2ccc3ccccc3n2)cc1OC [Compound 78, (Z)-2-(3,4-dimethoxy-phenyl)-3-quinolin-2-yl-acrylonitrile] | 
